Results: DBAASP
In brackets after ≈: the same amount, converted by molar mass. Blank lines part the entries; values can stand above or below the compound they belong to.

How the values were obtained:
Experiment in all cases: ≥ marks a high value that may be exact or a test limit, other limits are often not marked, values filed in µg/mL are converted to µM
[1] = test system: Bacillus subtilis ATCC 6633
[2] = test system: Escherichia coli D21
[3] = test system: Micrococcus luteus Ml11
[4] = test system: Proteus vulgaris OX19 ATCC 6380
[5] = test system: Shigella flexneri ATCC 203
[6] = test system: Staphylococcus aureus JC-1
[7] = test system: Pseudomonas aeruginosa OT97
[8] = test system: Bacillus megaterium Bm11
[9] = test system: Acinetobacter baumannii
[10] = test system: Acinetobacter baumannii KCTC 2508
[11] = test system: Escherichia coli ATCC 33694
[12] = test system: Escherichia coli ATCC 25922
[13] = test system: Acinetobacter baumannii ATCC 19606
[14] = test system: Staphylococcus aureus ΔmprF
[15] = test system: Staphylococcus aureus
[16] = test system: Staphylococcus aureus ATCC 43300
[17] = test system: Bordetella bronchiseptica CUN 11844-99
[18] = test system: Pseudomonas aeruginosa CUN 4158-02
[19] = test system: Brucella abortus 9.49 (per-)
[20] = test system: Staphylococcus aureus ΔmprFpRBsyn
[21] = test system: Yersinia pestis KIM pYV
[22] = test system: Bacillus licheniformis X39
[23] = test system: Rhodococcus rhodochrous X15
[24] = test system: Staphylococcus aureus ATCC 2592
[25] = test system: Staphylococcus carnosus KHS
[26] = test system: Neurospora crassa CBS 327-54
[27] = test system: Fusarium haematococcum 160.2.2
[28] = test system: Salmonella enterica subsp. enterica serovar Typhimurium ATCC 700408
[29] = test system: Escherichia coli 45849
[30] = test system: Escherichia coli BL21AI
[31] = test system: Escherichia coli DC2
[32] = test system: Escherichia coli DSM 1103
[33] = test system: Micrococcus luteus ATCC 10240
[34] = test system: Klebsiella pneumoniae K6 ATCC 700603
[35] = test system: Salmonella enterica subsp. enterica serovar Typhi S5
[36] = test system: Agrobacterium tumefaciens ATCC 15955
[37] = test system: Escherichia coli D31
[38] = test system: Klebsiella pneumoniae DSM 681
[39] = test system: Klebsiella pneumoniae 123132
[40] = test system: Staphylococcus epidermidis
[41] = test system: Streptococcus pyogenes
[42] = test system: Pseudomonas aeruginosa ATCC 27853
[43] = test system: Candida albicans ATCC 90112
[44] = test system: Stenotrophomonas maltophilia ATCC 13637
[45] = test system: Proteus mirabilis
[46] = test system: Staphylococcus aureus ATCC 25923

MIC [9]: 4.42 µM (≈ 9.71 µg/mL) | MIC [1]: 1.1 µM (≈ 2.43 µg/mL) | MIC [10]: 3.12 µM (≈ 6.86 µg/mL) | MIC [11]: 8.84 µM (≈ 19.4 µg/mL)
SMILES: CC[C@H](C)[C@H](NC(=O)CNC(=O)[C@@H](NC(=O)[C@H](CCCCN)NC(=O)[C@H](CCCCN)NC(=O)[C@H](Cc1ccccc1)NC(=O)[C@H](CC(C)C)NC(=O)[C@H](CCCCN)NC(=O)[C@H](Cc1c[nH]c2ccccc12)NC(=O)[C@@H](N)CCCCN)[C@@H](C)CC)C(=O)NCC(=O)N[C@@H](C)C(=O)N[C@H](C(=O)N[C@@H](CC(C)C)C(=O)N[C@@H](CCCCN)C(=O)N[C@H](C(=O)N[C@@H](CC(C)C)C(=O)N[C@H](C(=O)N[C@H](C(=O)NCC(N)=O)[C@@H](C)O)[C@@H](C)O)C(C)C)C(C)C [KWKLFKKIGIGAVLKVLTTG]

MIC [22]: 19 µM (≈ 24.8 µg/mL) | MIC [23]: 4.8 µM (≈ 6.25 µg/mL) | MIC [24]: 9.5 µM (≈ 12.4 µg/mL) | MIC [25]: 9.5 µM (≈ 12.4 µg/mL)
SMILES: CC[C@H](C)[C@H](NC(=O)[C@H](CC(C)C)NC(=O)CNC(=O)[C@H](C)NC(=O)[C@H](CC(C)C)NC(=O)[C@@H](N)Cc1ccccc1)C(=O)NCC(=O)NCC(=O)N[C@@H](CC(C)C)C(=O)N[C@@H](C)C(=O)N[C@@H](CCCCN)C(=O)N[C@@H](CCSC)C(=O)N[C@@H](CC(C)C)C(N)=O [FLAGLIGGLAKML]

MIC [26]: ≥ 100 µM | MIC [27]: 30 µM (≈ 72.1 µg/mL)
SMILES: CC[C@H](C)[C@H](NC(=O)[C@H](CCCN=C(N)N)NC(=O)[C@H](CCC(=O)O)NC(=O)[C@H](CC(=O)O)NC(=O)CNC(=O)[C@H](CCCN=C(N)N)NC(=O)[C@H](CC(C)C)NC(=O)[C@@H](N)[C@@H](C)O)C(=O)N[C@@H](CC(C)C)C(=O)N[C@@H](CO)C(=O)N[C@H](C(=O)N[C@@H](CC(C)C)C(=O)N[C@@H](CCCN=C(N)N)C(=O)N[C@@H](Cc1cnc[nH]1)C(=O)N[C@@H](CCC(N)=O)C(=O)N[C@@H](CC(N)=O)C(=O)N[C@@H](CC(C)C)C(=O)N[C@@H](CC(C)C)C(=O)N[C@@H](CCCCN)C(=O)N[C@@H](CCC(=O)O)C(=O)O)[C@@H](C)CC [TLRGDERILSILRHQNLLKE]

MIC [1]: 30 µM (≈ 49.4 µg/mL) | MIC [40]: 30 µM (≈ 49.4 µg/mL) | MIC [41]: 30 µM (≈ 49.4 µg/mL) | MIC [42]: 30 µM (≈ 49.4 µg/mL) | MIC [12]: 30 µM (≈ 49.4 µg/mL) | MIC [43]: 7.5 µM (≈ 12.3 µg/mL) | MIC [44]: 15 µM (≈ 24.7 µg/mL) | MIC [33]: 30 µM (≈ 49.4 µg/mL) | MIC [45]: ≥ 60 µM | MIC [46]: > 60 µM
SMILES: CC(C)C[C@H](NC(=O)CNC(=O)[C@H](CCCCN)NC(=O)[C@H](CC(C)C)NC(=O)[C@H](CC(N)=O)NC(=O)[C@@H](N)CC(C)C)C(=O)N[C@@H](Cc1ccccc1)C(=O)N[C@@H](CCCCN)C(=O)N[C@@H](CCCCN)C(=O)N[C@H](C(=O)N[C@@H](C)C(=O)N[C@@H](CO)C(=O)N[C@@H](CC(C)C)C(=O)N[C@@H](CC(C)C)C(=O)N[C@H](C(=O)O)[C@@H](C)O)C(C)C [LNLKGLFKKVASLLT]

Second part, the compound before the results:

SMILES: CC[C@H](C)[C@H](NC(=O)[C@@H]1CCCN1C(=O)[C@H](CCCN=C(N)N)NC(=O)[C@@H]1CCCN1C(=O)[C@H](CCCN=C(N)N)NC(=O)[C@H](Cc1ccc(O)cc1)NC(=O)[C@H](CC(N)=O)NC(=O)[C@@H]1CCCN1C(=O)[C@H](CCCN=C(N)N)NC(=O)[C@@H]1CCCN1C(=O)[C@@H](N)CCCN=C(N)N)C(=O)N[C@@H](Cc1ccc(O)cc1)C(=O)N[C@@H](CCCN=C(N)N)C(=O)N1CCC[C@H]1C(N)=O [RPRPNYRPRPIYRP]
MIC [1]: 1.06 µM (≈ 1.95 µg/mL) | MIC [2]: 2.12 µM (≈ 3.9 µg/mL) | MIC [3]: 5.44 µM (≈ 9.99 µg/mL) | MIC [4]: 4.24 µM (≈ 7.8 µg/mL) | MIC [5]: 0.533 µM (≈ 0.98 µg/mL) | MIC [6]: 4.24 µM (≈ 7.8 µg/mL) | MIC [7]: 4.24 µM (≈ 7.8 µg/mL) | MIC [8]: 1.03 µM (≈ 1.9 µg/mL)

SMILES: CC[C@H](C)[C@H](NC(=O)[C@H](CCCN=C(N)N)NC(=O)[C@H](CCCN=C(N)N)NC(=O)[C@H](CC(C)C)NC(=O)[C@H](Cc1ccccc1)NC(=O)[C@@H](NC(=O)[C@H](CCCN=C(N)N)NC(=O)[C@H](CCSC)NC(=O)[C@@H](NC(=O)[C@H](CCCCN)NC(=O)[C@H](CCCCN)NC(=O)[C@H](CO)NC(=O)[C@@H](NC(=O)[C@@H](N)CCCCN)[C@@H](C)CC)[C@@H](C)CC)[C@@H](C)O)C(=O)N[C@@H](CO)C(=O)N[C@@H](CCCCN)C(=O)N[C@@H](CC(=O)O)C(=O)N[C@H](C(=O)N[C@@H](CC(C)C)C(=O)N[C@H](C(=O)NCC(=O)N[C@@H](CCCCN)C(=O)N[C@@H](CCCCN)C(N)=O)[C@@H](C)O)[C@@H](C)CC [KISKKIMRTFLRRISKDILTGKK]
MIC [12]: 1.45 µM (≈ 4 µg/mL) | MIC [13]: 1.45 µM (≈ 4 µg/mL) | MIC [14]: 1.45 µM (≈ 4 µg/mL) | MIC [15]: 11.6 µM (≈ 32 µg/mL) | MIC [16]: > 92.7 µM | MIC [17]: 0.362 µM (≈ 1 µg/mL) | MIC [18]: 1.45 µM (≈ 4 µg/mL) | MIC [19]: 0.724 µM (≈ 2 µg/mL) | MIC [20]: 1.45 µM (≈ 4 µg/mL) | MIC [21]: ≥ 46.4 µM

SMILES: CC[C@H](C)[C@H](NC(=O)[C@H](CCCN=C(N)N)NC(=O)[C@@H]1CCCN1C(=O)[C@H](Cc1cnc[nH]1)NC(=O)[C@@H]1CCCN1C(=O)[C@@H]1CCCN1C(=O)[C@H](CCCN=C(N)N)NC(=O)[C@@H]1CCCN1C(=O)[C@H](CCC(N)=O)NC(=O)[C@@H]1CCCN1C(=O)[C@H](CC(C)C)NC(=O)[C@H](Cc1ccc(O)cc1)NC(=O)[C@@H](NC(=O)[C@@H]1CCCN1C(=O)[C@H](CCCN=C(N)N)NC(=O)[C@H](CC(N)=O)NC(=O)[C@H](CC(N)=O)NC(=O)CN)C(C)C)C(N)=O [GNNRPVYLPQPRPPHPRI]
MIC [28]: 1.9 µM (≈ 4 µg/mL) | MIC [29]: 7.59 µM (≈ 16 µg/mL) | MIC [30]: 1.85 µM (≈ 3.91 µg/mL) | MIC [31]: 3.7 µM (≈ 7.81 µg/mL) | MIC [32]: 1.85 µM (≈ 3.91 µg/mL) | MIC [33]: 0.925 µM (≈ 1.95 µg/mL) | MIC [34]: ≥ 60.7 µM | MIC [35]: 15.2 µM (≈ 32 µg/mL) | MIC [36]: 1.23 µM (≈ 2.6 µg/mL) | MIC [37]: ≥ 60.7 µM | MIC [38]: 7.41 µM (≈ 15.6 µg/mL) | MIC [39]: 15.2 µM (≈ 32 µg/mL)
